In general, EC50 refers to the concentration at which the effect is half-maximal. Broadly, the IC50 is the point on the concentration scale where inhibition reaches its midpoint. Read a high IC50 as a need for much substance.

The structures appear in SMILES notation. Where “and” joins values, the source holds several entries; their conditions need not be identical. Equal entries are not always repeated. Calls of active or inactive are those of the source.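 Rule for the calls: active = compounds giving half or more protection of infected cells from virus-caused growth loss, again on retest; inactive = the rest.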

The assay deals with CEM cells HIV-1 protection, formazan growth assay. Nature of the assay: NCI AIDS Antiviral Assay. The following applies: for IC50: measured here: growth of uninfected CEM cells. The gist of the method: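 Protection of CEM cells against HIV-1 measured as cell growth via soluble formazan read-out, with five concentrations tested on both infected and uninfected cells; failure to protect may reflect toxicity.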

In the case of `COc1ccc2oc(=O)c(-c3csc(C)n3)cc2c1`, the EC50 was > 151 µM and the IC50 turned out to be 138 µM. The corresponding values for `Cc1ccccc1C(=O)N1CCN(C(=O)c2ccccc2C)CC1` are > 145 µM and > 145 µM. On the same counts, the results for `O=[N+]([O-])c1ccc(Sc2c3ccccc3nc3ccccc23)cn1` are > 100 µM and 7.24 µM. The corresponding values for `OCCCSc1ccccc1SCCCO` are > 52.5 µM and > 52.5 µM. As to `O=C(NCCCN1CC2CCCC2C1)C(C1CCCCC1)C1CCCCC1` (stereo unspecified), the EC50 is > 200 µM and the half-inhibitory concentration (IC50) turned out to be 11.5 µM.

Turning to `O=C1/C(=C\c2cccc(Oc3ccccc3)c2)SC(c2ccccc2)N1c1cc(Cl)ccc1Cl` (stereo unspecified), the EC50 is > 200 µM and the IC50 turned out to be 9.33 µM. On the same counts, the results for `NC(=O)NCOC(=S)SSSC(=S)OCNC(N)=O` are > 200 µM and 32.4 µM. The corresponding values for `CC(C)C(NCc1c(O)ccc2c(-c3ccccc3)cc(=O)oc12)C(=O)O` (stereo unspecified) are > 200 µM and > 200 µM. On the same counts, the results for `COC(=O)C(/C(=N/N)C(=O)Nc1cccc(O)c1)c1nc2ccccc2[nH]c1=O` (stereo unspecified) are > 34.7 µM and > 34.7 µM. Consider `CSc1ccc(/C=N\C(=N)SN)cc1C`, for which the EC50 is > 200 µM and the half-maximal inhibitory concentration (IC50) is 18.6 µM. For the compound `CCN(CC)/C(SCc1ccccc1)=C(\C(Cl)=C(Cl)Cl)[N+](=O)[O-]`, the EC50 is > 200 µM and the IC50 is 34.7 µM. Turning to `CC1(C)C(=O)C(C)(C)C1=NN`, the EC50 is > 83.2 µM and the concentration for half-maximal inhibition (IC50) is > 83.2 µM. For the compound `COC(=O)CCC(=O)CC(=O)C(=O)Nc1c(Cl)cc([N+](=O)[O-])cc1Cl`, the EC50 was > 18.2 µM and the IC50 is > 18.2 µM. Consider `COC(=O)[C@H](Cc1ccccc1)NC(=O)N(CCC#N)CCN(C(=O)N[C@@H](Cc1ccccc1)C(=O)OC)c1ccccc1`, for which the EC50 was > 200 µM and the IC50 was found to be 29.5 µM.

As for `BrC1=CC=C2NC=CC3=CC=NC1C32` (stereo unspecified), the result was inactive. As to `CC1C/C(=C\c2ccc(O)c(O)c2)C(=O)/C(=C/c2ccc(O)c(O)c2)C1` (stereo unspecified), the EC50 is > 200 µM and the IC50 came out at 10 µM. Take `COCOCC1CCCN1CN1CCC[C@H]1COCOC` (stereo partly specified): the EC50 was > 200 µM and the concentration for half-maximal inhibition (IC50) was 107 µM. Turning to `Cc1ccc2c(n1)C(N1CCOCC1)=CC(=O)C2=O`, the result was inactive. `COc1ccc2c(c1OC)CN(C)CCc1cc3c(cc1C(=O)C2)OCO3`: the EC50 was > 355 µM and the concentration for half-maximal inhibition (IC50) was 288 µM.

With `CC(C)CCCC(C)[C@H]1CC[C@H]2[C@@H]3CC[C@H]4C[C@@H](CCC=C(c5cc(Cl)c(OC(=O)C(C)C)c(C(=O)O)c5)c5cc(Cl)c(OC(=O)C(C)C)c(C(=O)O)c5)CC[C@]4(C)[C@H]3CC[C@]12C` (stereo partly specified), the EC50 is 105 µM and the IC50 stood at 126 µM.

For the compound `C[C@@]12C(=O)OC(=O)[C@]1(C)[C@H]1CC[C@@H]2O1`, the EC50 is > 347 µM and the IC50 amounted to 4.9 µM. The corresponding values for `COc1ccc2c(ccc3c(C(=O)NCCN(C)CCNC(=O)c4cn(C)c5c4ccc4cc(OC)ccc45)cn(C)c32)c1` are > 200 µM and 1.15 µM. On to `CC[n+]1c(/C=C/c2ccc(N(CCCl)CCCl)cc2)ccc2cc(I)ccc21`, for which the result was inactive. As to `CC(C)NC(=O)CCN(C(=O)O)S(=O)(=O)c1ccc(NC(=O)c2ccccc2)cc1`, the EC50 is > 575 µM and the IC50 was > 575 µM.

Consider `C=C1CC(COc2ccc3c(C)c(C)c(=O)oc3c2C)(c2ccccc2)OC1=O` (stereo unspecified), for which the EC50 is > 200 µM and the half-inhibitory concentration (IC50) turned out to be 0.933 µM. On the same counts, the results for `N#Cc1c(Cl)c2cccnc2n2c1nc1ccccc12` are > 200 µM and 0.339 µM.

For the compound `CCOC(=O)c1c(-c2ccccc2)c(C(OC(c2ccccc2)c2c(-c3ccccc3)c(C(=O)OCC)n3ccccc23)c2ccccc2)c2ccccn12` (stereo unspecified), the EC50 was > 5.25 µM and the 50% inhibitory concentration (IC50) was > 5.25 µM. Turning to `CC(=O)CC(=O)ON(C)C(C)=O`, the EC50 is > 1450 µM and the half-inhibitory concentration (IC50) was > 1450 µM.

Turning to `O=C(NC1CCCCC1NC(c1ccccc1)(c1ccccc1)c1ccccc1)C(=O)NC1CCCCC1NC(c1ccccc1)(c1ccccc1)c1ccccc1` (stereo unspecified), the EC50 was > 100 µM and the concentration for half-maximal inhibition (IC50) was > 100 µM.

As to `CCOC(=O)[C@@]12C[C@@H](C#N)C1N(Cc1ccccc1)[C@@H]1ON=C(c3ccc(Cl)cc3)[C@@H]1C2` (stereo partly specified), the result was inactive.

In the case of `O=C(O)c1ccc(P(=O)(O)c2ccc(C(=O)O)cc2Br)c(Br)c1`, the EC50 was > 200 µM and the IC50 was > 200 µM. As to `O=C(c1ccccc1)C1C(C(=O)c2ccccc2)N1Cc1ccccc1` (stereo unspecified), the EC50 was > 200 µM; the concentration for half-maximal inhibition (IC50) is 60.3 µM and > 55 µM.

For the compound `CCN(CC)C(=S)[S-].CCN(CC)C(=S)[S-].O=C(O)CC([S-])C(=O)O.[Fe+3]` (stereo unspecified), the EC50 was > 100 µM and the half-maximal inhibitory concentration (IC50) was determined as 38.9 µM. The corresponding values for `Cc1ccc(NC(=O)C(=O)C2C(=O)C3=C(CC2(C)C)NC2C=CC=CC2S3)c(C)c1` (stereo unspecified) are > 117 µM and > 117 µM. On the same counts, the results for `CCOC(=O)C(N)CSC(=O)NC` (stereo unspecified) are > 1020 µM and 87.1 µM. On to `CC(C)OC(=O)NCCn1cc(-c2ccccc2)nn1`, for which the EC50 is > 200 µM and the IC50 was > 200 µM. As for `CC(=O)O[C@H]1[C@@H]2[C@@H](C[C@H](C)[C@H]3C=CC(=O)[C@@]31C)OC(=O)[C@@H]2C`, the EC50 is > 200 µM and the IC50 was found to be 34.7 µM. The corresponding values for `CC(C)(C)OC(=O)NCCC1SC2C=CC1C2` (stereo unspecified) are > 200 µM and 107 µM.

Consider `C[N+](C)(C)CCC[N+](C)(C)CCN1C(=O)c2cccc3cccc(c23)C1=O`, for which the EC50 is > 200 µM and the IC50 was > 200 µM. As for `CC(C)(C)NCc1c(C(=O)NCCO)[n+](=O)c2ccccc2n1[O-]`, the EC50 was > 75.9 µM and the IC50 is > 75.9 µM. For the compound `COc1ccc(-c2c(C#N)c(S)n(C3OC(COC(C)=O)C(OC(C)=O)C(OC(C)=O)C3OC(C)=O)c(=O)c2C#N)cc1` (stereo unspecified), the EC50 is > 200 µM and the concentration for half-maximal inhibition (IC50) is > 200 µM. `CCOP(=O)(CC(C)P(=O)(OCC)OCC)OCC.C[CH2][Sn]([Cl])([Cl])[CH2]C` (stereo unspecified): the EC50 was > 447 µM and the half-maximal inhibitory concentration (IC50) is 1.7 µM.

Take `COc1nc(N)c(N=CC(OC(C)=O)C(OC(C)=O)C(COC(C)=O)OC(C)=O)c(=O)n1C` (stereo unspecified): the EC50 is > 200 µM.

Turning to `CN1C(=O)C2CCCN2C(=O)C1(C)NC(=O)OCc1ccccc1` (stereo unspecified), the EC50 was > 269 µM and the IC50 is > 269 µM. Consider `O=C(Nc1ccc(F)cc1)N(C1CCCCC1)C1CCCCC1`, for which the EC50 was > 200 µM and the concentration for half-maximal inhibition (IC50) was 81.3 µM. With `ClC(Cl)(Cl)SSC(=Nc1ccccc1)SSC(Cl)(Cl)Cl`, the EC50 is > 200 µM and the 50% inhibitory concentration (IC50) was determined as 4.79 µM. In the case of `CCOC(=O)C(Cl)(NC(=O)c1ccc(F)cc1)C(F)(F)F` (stereo unspecified), the EC50 was > 200 µM and the IC50 was > 200 µM. For `Cc1cc(C)cc(-n2c3nc(=O)n(C)c(=O)c-3nc3ccccc32)c1`, the result was inactive. For `CN1C(=O)c2ccccc2C(O)(c2ccccc2)C1(O)c1ccccc1` (stereo unspecified), the EC50 was > 200 µM and the IC50 turned out to be 64.6 µM. For `CSc1c(C#N)c2n(c3ccccc13)c1ccccc1[n+]2C`, the EC50 was > 100 µM and the IC50 came to 6.76 µM.

Consider `CC(C)C(Nc1c2ccccc2nc2ccccc12)C(=O)O` (stereo unspecified), for which the outcome was inactive. Consider `C/C(O)=C(/C=N\C(=S)Nc1ccc(S(=O)(=O)Nc2nccs2)cc1)C(=O)Nc1ccccc1C`, for which the EC50 is > 200 µM and the half-maximal inhibitory concentration (IC50) was 30.2 µM. The corresponding values for `CC1C(=O)CC2C3(C)CCC2(C(C)C(=O)O)C(=O)C13` (stereo unspecified) are > 275 µM and 224 µM. In the case of `COc1c(C(=O)CC2c3c(cc4oc(C)cc(=O)c4c3OC)OC(=N)C2c2nc3ccccc3[nH]2)c(O)c(OC)c2occc12` (stereo unspecified), the EC50 is 25.1 µM and the half-inhibitory concentration (IC50) came to 49 µM. Turning to `COc1ccc2nc3cccc([N+](=O)[O-])c3c(NCCCCCC(=O)O)c2c1`, the EC50 was > 2 µM and the IC50 was found to be 0.302 µM.

For the compound `O=[N+]([O-])C(=C1c2ccccc2-c2ccccc21)[N+](=O)[O-]`, the EC50 was > 135 µM and the 50% inhibitory concentration (IC50) came out at 18.2 µM. On the same counts, the results for `COc1ccc(S(=O)(=O)O)cc1-n1nc(C(=O)Nc2ccccc2)n[n+]1-c1cc(S(=O)(=O)[O-])ccc1OC` are > 200 µM and > 200 µM. On to `COc1ccc(C(C)=C(C#N)C#N)cc1`, for which the EC50 was > 182 µM and the IC50 was > 182 µM. On to `N#CC(C#N)=CNC(=S)c1ccncc1`, for which the EC50 is > 200 µM and the IC50 was determined as 166 µM. For the compound `O=C(O)c1cc2c(cc1C(=O)O)C(=O)C(c1ccccc1)C2=O`, the EC50 is > 200 µM and the IC50 was > 200 µM.

`NS(=O)(=O)c1ccc(CNC(=O)c2ccccc2SC(=O)CCC[n+]2ccccc2)cc1`: the concentration for a half-maximal effect (EC50) was 4.79 µM and the IC50 was 13.8 µM. The corresponding values for `O=C(OCCN=C1c2ccccc2CCc2ccccc21)c1ccccc1` are > 200 µM and > 200 µM. The corresponding values for `O=C(CCc1cccc(O)c1)NCCCNC(=O)CCc1cccc(O)c1` are > 200 µM and > 200 µM. Turning to `COc1cc2c(cc1OC)C1Cc3cc(OC)c(OC)cc3C(C2)N1C`, the EC50 is > 708 µM; the IC50 was 52.5 µM and 64.6 µM. For `Cc1cccc(C(O)c2cccnc2)c1O` (stereo unspecified), the EC50 is > 200 µM and the concentration for half-maximal inhibition (IC50) is > 200 µM. In the case of `O=[N+]([O-])c1ccc(S(=O)(=O)N/N=C/c2cccc3ccccc23)cc1`, the EC50 was > 51.3 µM and the IC50 is > 51.3 µM. Regarding `O=C1CCC(=O)c2c1c(O)c1ccncc1c2O`, the result was inactive. For `N#Cc1sc2c(c1O)c(=O)n(-c1ccccc1)c(=S)n2-c1ccccc1`, the EC50 was > 661 µM and the IC50 was found to be 30.9 µM. `C[C@@]1(CO)[C@H](O)CC[C@@]2(C)[C@H]1CC[C@H]1C[C@@H]3C[C@@]12CC[C@@]3(O)COC(=O)CN`: the EC50 is > 575 µM and the IC50 was determined as 0.331 µM. Take `CC1CC/C(=C\c2ccc(F)cc2)C2=C1C(c1ccc(F)cc1)n1c(s/c(=C\c3ccc(Cl)cc3)c1=O)=N2` (stereo unspecified): the outcome was inactive.
